Results on 38 molecules are retold here after BindingDB's records for doi:10.7270/Q2KD1WBN (Burnham Center For Chemical Genomics, 2010).

Chain of Envelope glycoprotein gp160 (Q6QLK5 whole entry, the tested form may be a part): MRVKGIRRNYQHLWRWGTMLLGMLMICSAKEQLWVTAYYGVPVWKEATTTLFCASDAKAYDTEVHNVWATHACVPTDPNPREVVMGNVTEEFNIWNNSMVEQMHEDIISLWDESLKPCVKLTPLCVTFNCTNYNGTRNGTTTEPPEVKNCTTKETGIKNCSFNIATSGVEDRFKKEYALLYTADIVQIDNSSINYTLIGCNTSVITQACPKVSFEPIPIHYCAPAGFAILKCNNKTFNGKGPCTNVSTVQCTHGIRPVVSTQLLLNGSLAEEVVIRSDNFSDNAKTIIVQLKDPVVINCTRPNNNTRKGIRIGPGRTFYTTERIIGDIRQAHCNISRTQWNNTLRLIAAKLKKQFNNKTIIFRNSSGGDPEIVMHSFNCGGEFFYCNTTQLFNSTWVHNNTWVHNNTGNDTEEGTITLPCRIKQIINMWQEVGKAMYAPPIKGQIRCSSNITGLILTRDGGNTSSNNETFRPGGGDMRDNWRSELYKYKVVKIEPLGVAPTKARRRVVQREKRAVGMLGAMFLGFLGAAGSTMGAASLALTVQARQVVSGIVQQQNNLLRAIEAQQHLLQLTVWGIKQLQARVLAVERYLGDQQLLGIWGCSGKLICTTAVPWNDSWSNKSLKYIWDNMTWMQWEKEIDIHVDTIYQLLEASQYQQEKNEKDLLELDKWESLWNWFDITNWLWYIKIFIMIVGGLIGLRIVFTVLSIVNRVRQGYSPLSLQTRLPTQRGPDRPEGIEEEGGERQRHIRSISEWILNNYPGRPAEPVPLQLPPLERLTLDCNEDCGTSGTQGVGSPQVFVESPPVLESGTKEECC

This assay addresses Envelope glycoprotein gp160 (Human immunodeficiency virus 1, UniProt Q6QLK5). Briefly: blockers of HIV fusion peptide binding, cell-free – biochemical, fluorescence quenching, SAR follow-up (AID 434967).
As for `Cc1c(Cl)cccc1NS(=O)(=O)c1ccc2c(c1)C1C=CCC1C(c1ccc(C(=O)O)cc1)N2` (stereo not drawn), the IC50 – broadly, the concentration needed to halve the response being measured – is 3.16 µM. As to `CS(=O)(=O)C1=NSC2=NC(=O)/C(=C\c3cccn3-c3ccc(Cl)cc3)C(=N)N21`, the IC50 came to 5.7 µM.

`COc1cc(/C=C2\SC(=O)N(c3ccccc3Cl)C2=O)cc([N+](=O)[O-])c1O` displayed an IC50 of 9.04 µM. Regarding `N#C/C(=C\C1C=CC(=O)C([N+](=O)[O-])=C1)c1nc2ccccc2s1` (stereo not drawn), the IC50 was 6.25 µM.

As for `CCC(Sc1nc2ccsc2c(=O)n1Cc1ccc(C(=O)O)cc1)C(=O)Nc1ccc(C)c(Cl)c1` (stereo not drawn), the IC50 amounted to 8.01 µM. The molecule `CS(=O)(=O)C1=NSC2=NC(=O)/C(=C\c3ccc(OS(=O)(=O)c4ccccc4)cc3)C(=N)N21` gave an IC50 of 7.73 µM. As for `CCOc1cc(/C=C2\SC(=O)N(CC(=O)Nc3ccccc3F)C2=O)cc([N+](=O)[O-])c1O`, the IC50 is 4.32 µM. `O=C1Nc2ccc([N+](=O)[O-])cc2C1=NNc1ccccc1C(=O)O` [2-[2-(5-nitro-2-oxidanylidene-indol-3-yl)hydrazinyl]benzoic acid] came in with an IC50 of 13.3 µM.

With `CCOC(=O)C1=C(C)N=c2sc(=Cc3ccc(OCC(=O)O)cc3)c(=O)n2C1c1ccc(OC(C)C)cc1` (stereo not drawn) [2-[4-[[6-ethoxycarbonyl-7-methyl-3-oxo-5-(4-propan-2-yloxyphenyl)-5H-[1,3]thiazolo[3,2-a]pyrimidin-2-ylidene]methyl]phenoxy]acetic acid], the IC50 is 6.64 µM. In the case of `O=c1/c(=C/c2cc([N+](=O)[O-])cc([N+](=O)[O-])c2O)sc2nc3ccccc3n12` [2-[(2-hydroxy-3,5-dinitrophenyl)methylidene]-1-thiazolo[3,2-a]benzimidazolone], the IC50 was 2.61 µM. With `CCC(C)(C)C1CCc2c(sc(NC(=O)c3ccccc3C(=O)O)c2C#N)C1` (stereo not drawn) [2-[[3-cyano-6-(2-methylbutan-2-yl)-4,5,6,7-tetrahydro-1-benzothiophen-2-yl]carbamoyl]benzoic acid], the concentration for half-maximal inhibition (IC50) stood at 6.1 µM. With `O=C(O)c1ccccc1C(=O)N(Cc1cccc(Oc2ccc(Cl)cc2)c1)[C@H]1CCCc2ccccc21` [2-[[[3-(4-chlorophenoxy)phenyl]methyl-[(1S)-1,2,3,4-tetrahydronaphthalen-1-yl]amino]-oxomethyl]benzoic acid], the IC50 turned out to be 2.6 µM.

On to `COc1cc(CN=Nc2ccc(Cl)c(C(=O)O)c2)ccc1OC(=O)c1ccc(F)cc1` [2-chloro-5-[2-[[4-[(4-fluorophenyl)-oxomethoxy]-3-methoxyphenyl]methylidene]hydrazinyl]benzoic acid], for which the IC50 came to 8.03 µM. With `CC(C)S(=O)(=O)C1=NSC2=NC(=O)/C(=C\c3ccc(-c4cccc(C(=O)O)c4)o3)C(=N)N21` [3-[5-[(Z)-(5-imino-7-oxo-3-propan-2-ylsulfonyl-[1,2,4]thiadiazolo[4,5-a]pyrimidin-6-ylidene)methyl]furan-2-yl]benzoic acid], the IC50 came out at 4.49 µM. With `O=[N+]([O-])c1cc([N+](=O)[O-])c2oc(-c3ccccc3)c(Br)c2c1O` [3-bromanyl-5,7-dinitro-2-phenyl-1-benzofuran-4-ol], the IC50 amounted to 14.5 µM.

`O=C(O)CCCN1C(=O)/C(=C/c2ccc(-c3nc4ccccc4s3)o2)SC1=S` [4-[(5Z)-5-[[5-(1,3-benzothiazol-2-yl)furan-2-yl]methylidene]-4-oxo-2-sulfanylidene-1,3-thiazolidin-3-yl]butanoic acid] yielded an IC50 of 1.76 µM. As for `CC(C)(C)c1cc(-c2cs/c(=N\c3ccccc3)n2Cc2ccc(C(=O)O)cc2)cc(C(C)(C)C)c1O` [4-[[4-(3,5-ditert-butyl-4-oxidanyl-phenyl)-2-phenylazanyl-1,3-thiazol-3-ium-3-yl]methyl]benzoic acid;bromide], the concentration for half-maximal inhibition (IC50) was found to be 27.3 µM. Molecule `Cc1ccc(S(=O)(=O)Oc2ccc(/C=C3/C(=N)N4C(=NC3=O)SN=C4S(C)(=O)=O)cc2)cc1` [4-methylbenzenesulfonic acid [4-[(Z)-(5-imino-3-methylsulfonyl-7-oxo-[1,2,4]thiadiazolo[4,5-a]pyrimidin-6-ylidene)methyl]phenyl] ester] registered an IC50 of 6.51 µM. Next, `O=C1NC(=S)N(c2ccc(F)cc2)C(=O)C1=Cc1ccco1` [(5E)-1-(4-fluorophenyl)-5-(2-furanylmethylidene)-2-sulfanylidene-1,3-diazinane-4,6-dione]: 10 µM; `Cc1cc(C)cc(-n2cccc2/C=C2/C(=N)N3C(=NC2=O)SN=C3S(C)(=O)=O)c1` [(6Z)-5-azanylidene-6-[[1-(3,5-dimethylphenyl)pyrrol-2-yl]methylidene]-3-methylsulfonyl-[1,2,4]thiadiazolo[4,5-a]pyrimidin-7-one]: 7.81 µM; `CC(C)S(=O)(=O)C1=NSC2=NC(=O)/C(=C\c3ccc(-c4ccccc4)o3)C(=N)N21` [(6Z)-5-imino-6-[(5-phenyl-2-furanyl)methylidene]-3-propan-2-ylsulfonyl-[1,2,4]thiadiazolo[4,5-a]pyrimidin-7-one]: 9.65 µM.

`CSc1nnc(-c2ccccc2N=Cc2c(C)[nH]n(-c3ccc4ccccc4c3)c2=O)c(=O)[nH]1` [MLS000540062] registered an IC50 of 9.84 µM.

As to `Cc1ccc(-n2cccc2/C=C2/C(=N)N3C(=NC2=O)SN=C3S(C)(=O)=O)cc1Cl` [MLS000583163], the IC50 worked out at 5.76 µM. In the case of `CC1(C)CC(=O)C2=C(C1)c1c(ccc3ccccc13)NC2c1cc([N+](=O)[O-])cc([N+](=O)[O-])c1O` (stereo not drawn) [MLS000716265], the IC50 was found to be 13.5 µM. `Cc1c2c(=O)n(-c3nc4ccccc4s3)[nH]c2cc(=O)n1Cc1ccccc1` [MLS000762993]: the IC50 was found to be 10.1 µM. In turn, `COc1ccccc1NS(=O)(=O)c1cccc(-n2c(O)c(C=Nc3ccccc3C(=O)O)c3ccccc3c2=O)c1` [MLS000776209] displayed an IC50 of 9.64 µM. For the molecule `COc1ccc(OC)c(N2C(=O)C(=Cc3ccco3)C(=O)NC2=S)c1` [MLS001197216], the IC50 stood at 6.06 µM. `COc1cc(/C=N/NS(=O)(=O)c2ccc3ccccc3c2)ccc1OCc1ccc(C(=O)O)cc1` [MLS-0298745.0001]: the IC50 is 7.76 µM.

In turn, `O=C(O)c1cc(N=NCc2ccc(-c3ccccc3)cc2)ccc1Cl` [MLS-0319671.0001] had an IC50 of 14.8 µM. In the case of `CCS(=O)(=O)C1=NSC2=NC(=O)/C(=C\c3ccc(OS(=O)(=O)c4ccccc4)cc3)C(=N)N21` [MLS-0362442.0001], the IC50 came to 11.5 µM. `CC(C)NC(=O)c1sc(=S)n2c1[nH]c(=O)c1ccc(C(=O)NCCc3ccc(Cl)cc3)cc12` [N8-[2-(4-chlorophenyl)ethyl]-5-oxidanylidene-N3-propan-2-yl-1-sulfanylidene-4H-[1,3]thiazolo[3,4-a]quinazoline-3,8-dicarboxamide] gave an IC50 of 9.56 µM. The molecule `O=C1NC(=S)N(C2CCCCC2)C(=O)C1=CNNC(=O)c1ccccc1O` [N'-[(E)-(1-cyclohexyl-4,6-dioxo-2-sulfanylidene-1,3-diazinan-5-ylidene)methyl]-2-hydroxybenzohydrazide] showed an IC50 of 9 µM. `O=C1NC(=S)N(c2ccc(F)cc2)C(=O)C1=Cc1ccoc1` [SMR000270574] yielded an IC50 of 8.59 µM. Next, `Cc1ccc(-n2c(O)c(C=Nc3ccccc3-c3n[nH]c(=S)[nH]c3=O)c3ccccc3c2=O)c(C)c1` [SMR000370443]: 5.76 µM; `COC(=O)c1sc(-c2ccc(C(C)(C)C)cc2)cc1NC(=O)c1ccccc1C(=O)O` [SMR000456098]: 5.94 µM; `COc1cc(CN=Nc2ccc(Cl)c(C(=O)O)c2)ccc1OC(=O)c1ccccc1F` [SMR000589905]: 25.9 µM.

The molecule `COc1ccc(C(=O)Oc2ccc(CN=Nc3ccc(Cl)c(C(=O)O)c3)cc2OC)cc1` [SMR000589907] yielded an IC50 of 5.16 µM. Molecule `CCOC(=O)c1sc(N2C(=O)C(=O)C(C(=O)c3ccc(C)o3)C2c2cccc([N+](=O)[O-])c2)nc1C` (stereo not drawn) [ethyl 4-methyl-2-[3-(5-methylfuran-2-yl)carbonyl-2-(3-nitrophenyl)-4-oxidanyl-5-oxidanylidene-2H-pyrrol-1-yl]-1,3-thiazole-5-carboxylate] registered an IC50 of 10.5 µM.
